# Reference: patent US20250011311A1, “AMIDO HETEROAROMATIC COMPOUNDS” (AstraZeneca AB, priority 2022, published 2025)
# pIC50: −log10 of the molar value.
# How the values were obtained:
# [1] = molecular target: over expressed HSD17β9 in HEK293S cells (Homo sapiens (Human), UniProt Q92781); test: In Vitro 17bHSD9 Cell Assay; assay type: cell-based; conditions: HEK293S cells over expressing HSD17β9; retinol to retinal conversion, 18 h, LC-MS/MS; read-out: 17bHSD9 Cell assay IC50
# Summary of the method: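 HEK293S cells overexpressing HSD17β9 were plated at 10K cells/well in DMEM + 10% FBS and cultured 18 h. Retinol-to-retinal conversion in media was quantified by LC-MS/MS (MRM) as retinal/(retinal + retinol). IC50 was fitted after normalisation to DMSO and full inhibition by a reference inhibitor.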
# [2] = molecular target: CYP2C9 (Homo sapiens (Human), UniProt P11712); test: Assay B: Cytochrome P450 Inhibition 2C9
# CYP2C9, sequence (P11712 whole entry): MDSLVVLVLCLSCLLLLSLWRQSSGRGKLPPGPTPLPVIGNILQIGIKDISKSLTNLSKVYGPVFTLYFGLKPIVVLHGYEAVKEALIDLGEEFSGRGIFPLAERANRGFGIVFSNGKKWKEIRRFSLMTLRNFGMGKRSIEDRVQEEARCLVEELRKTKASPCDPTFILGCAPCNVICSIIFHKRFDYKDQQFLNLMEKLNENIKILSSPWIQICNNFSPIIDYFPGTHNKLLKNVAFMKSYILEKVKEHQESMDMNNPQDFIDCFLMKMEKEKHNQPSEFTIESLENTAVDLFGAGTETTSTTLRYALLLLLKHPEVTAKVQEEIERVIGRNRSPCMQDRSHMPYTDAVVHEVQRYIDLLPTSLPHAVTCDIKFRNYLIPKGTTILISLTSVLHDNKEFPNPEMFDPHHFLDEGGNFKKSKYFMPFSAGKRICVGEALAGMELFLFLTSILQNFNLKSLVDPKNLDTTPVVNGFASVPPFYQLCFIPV
# [3] = molecular target: over expressed HSD17β13 in HEK293S cells (Homo sapiens (Human), UniProt Q7Z5P4); test: In Vitro 17bHSD13 Cell Assay; assay type: cell-based; conditions: HEK293S cells over expressing HSD17β13; estradiol to estrone conversion, 18 h, LC-MS/MS; read-out: 17bHSD1713 Cell assay IC50
# over expressed HSD17β13 in HEK293S cells, sequence (Q7Z5P4 20-300): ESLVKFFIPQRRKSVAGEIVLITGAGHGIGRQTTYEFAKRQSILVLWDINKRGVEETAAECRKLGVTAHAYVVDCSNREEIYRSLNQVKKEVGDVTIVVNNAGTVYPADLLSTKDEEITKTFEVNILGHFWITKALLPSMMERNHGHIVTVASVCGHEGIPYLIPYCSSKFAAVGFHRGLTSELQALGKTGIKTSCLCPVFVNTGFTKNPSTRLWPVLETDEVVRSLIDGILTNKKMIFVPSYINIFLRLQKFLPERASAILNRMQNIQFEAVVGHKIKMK
# Summary of the method: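 HEK293S cells overexpressing HSD17β13 convert estradiol to estrone; product read by LC-MS/MS (APCI, positive MRM) as AUC ratio estrone/(estrone+estradiol). Effect normalised between DMSO and maximal inhibition by a known inhibitor control; IC50 from curve fit.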
# over expressed HSD17β9 in HEK293S cells, sequence (Q92781 whole entry): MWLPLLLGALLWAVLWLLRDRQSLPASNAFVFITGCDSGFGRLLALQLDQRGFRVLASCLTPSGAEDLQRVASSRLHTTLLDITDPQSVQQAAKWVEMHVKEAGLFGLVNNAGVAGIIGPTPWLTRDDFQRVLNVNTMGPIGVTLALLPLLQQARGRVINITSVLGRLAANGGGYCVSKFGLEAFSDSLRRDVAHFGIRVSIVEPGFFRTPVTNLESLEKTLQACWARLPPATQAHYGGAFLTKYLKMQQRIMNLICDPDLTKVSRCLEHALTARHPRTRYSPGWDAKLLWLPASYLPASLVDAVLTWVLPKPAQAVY
Compound,pIC50 [1],pIC50 [2],pIC50 [3]
"O=C(c1ccc(-c2cc(F)c(F)c(O)c2F)s1)N1CC[C@H](c2ccccc2)C1 [Example 33, (R)-(3-Phenylpyrrolidin-1-yl)(5-(2,4,5-trifluoro-3-hydroxyphenyl)thiophen-2-yl)methanone]",< 4.30,6.70,5.92
"C[C@@H]1CN(C(=O)c2noc(-c3c(F)c(O)c(F)c(F)c3I)n2)C[C@H](C)O1 [Example 108, ((2S,6R)-2,6-Dimethylmorpholino)(5-(2,4,5-trifluoro-3-hydroxy-6-iodophenyl)-1,2,4-oxadiazol-3-yl)methanone]",< 4.30,5.15,6.31
"O=C(c1noc(-c2cc(F)c(F)c(O)c2F)n1)N1CCN(CCCOc2ccc(F)cc2)CC1 [Example 57, (4-(3-(4-Fluorophenoxy)propyl)piperazin-1-yl)(5-(2,4,5-trifluoro-3-hydroxyphenyl)-1,2,4-oxadiazol-3-yl)methanone]",< 4.30,5.43,6.85
"COc1cccc(N2CCN(C(=O)c3noc(-c4cc(F)c(F)c(O)c4F)c3C#N)CC2)c1 [Example 16, 3-(4-(3-Methoxyphenyl)piperazine-1-carbonyl)-5-(2,4,5-trifluoro-3-hydroxyphenyl)isoxazole-4-carbonitrile]",< 4.30,6.10,5.34
"Cn1nnc(-c2cnc(N3CCN(C(=O)c4noc(-c5cc(F)c(F)c(O)c5F)n4)CC3)c(Cl)c2)n1 [Example 67, (4-(3-Chloro-5-(2-methyl-2H-tetrazol-5-yl)pyridin-2-yl)piperazin-1-yl)(5-(2,4,5-trifluoro-3-hydroxyphenyl)-1,2,4-oxadiazol-3-yl)methanone]",< 4.30,5.52,6.28
"C[C@@H]1CN(C(=O)c2noc(-c3cc(F)c(F)c(O)c3F)n2)C[C@@H](C)O1 [Example 88, ((2R,6R)-2,6-Dimethylmorpholino)(5-(2,4,5-trifluoro-3-hydroxyphenyl)-1,2,4-oxadiazol-3-yl)methanone]",4.38,4.77,6.72
"O=C(c1noc(-c2cc(C(F)(F)F)[nH]c(=O)c2)n1)N1CCC(c2ccccc2)C1 (stereo not drawn) [Example 9, 4-(3-(3-Phenylpyrrolidine-1-carbonyl)-1,2,4-oxadiazol-5-yl)-6-(trifluoromethyl)pyridin-2(1H)-one]",4.60,5.24,5.26
"N#Cc1cccc2c1CCN(C(=O)c1noc(-c3c(F)c(O)c(F)c(F)c3Br)n1)C2 [Example 30, 2-(5-(2-Bromo-3,4,6-trifluoro-5-hydroxyphenyl)-1,2,4-oxadiazole-3-carbonyl)-1,2,3,4-tetrahydroisoquinoline-5-carbonitrile]",4.80,5.41,5.60
"N#Cc1c(C(=O)N2CCN(CCCOc3ccc(F)cc3)CC2)noc1-c1cc(F)c(F)c(O)c1F [Example 14, 3-(4-(3-(4-Fluorophenoxy)propyl)piperazine-1-carbonyl)-5-(2,4,5-trifluoro-3-hydroxyphenyl)isoxazole-4-carbonitrile]",< 4.30,5.96,6.59
"O=C(c1noc(-c2cc(F)c(F)c(O)c2F)n1)N1CC[C@H](Oc2ccccc2)C1 [Example 93, (S)-(3-Phenoxypyrrolidin-1-yl)(5-(2,4,5-trifluoro-3-hydroxyphenyl)-1,2,4-oxadiazol-3-yl)methanone]",4.39,5.89,6.15
"CC(C)CC1CN(C(=O)c2noc(-c3cc(F)c(F)c(O)c3F)n2)CCO1 (stereo not drawn) [Example 47, (2-Isobutylmorpholino)(5-(2,4,5-trifluoro-3-hydroxyphenyl)-1,2,4-oxadiazol-3-yl)methanone]",5.68,6.00,6.64
"N#Cc1c(C(=O)N2Cc3ccc(F)cc3C2)noc1-c1cc(F)c(F)c(O)c1F [Example 18, 3-(5-Fluoroisoindoline-2-carbonyl)-5-(2,4,5-trifluoro-3-hydroxyphenyl)isoxazole-4-carbonitrile]",5.21,6.40,6.10
"O=C(c1noc(-c2cc(F)c(F)c(O)c2F)n1)N1CC[C@@H](Oc2ccccc2)C1 [Example 98, (R)-(3-Phenoxypyrrolidin-1-yl)(5-(2,4,5-trifluoro-3-hydroxyphenyl)-1,2,4-oxadiazol-3-yl)methanone]",4.40,6.10,6.28
"C[C@@H]1CN(C(=O)c2noc(-c3cc(F)c(F)c(O)c3F)c2C#N)C[C@H](C)O1 [Example 22, 3-((2R,6S)-2,6-Dimethylmorpholine-4-carbonyl)-5-(2,4,5-trifluoro-3-hydroxyphenyl)isoxazole-4-carbonitrile]",< 4.30,5.92,5.95
"O=C(Nc1ccnn1C1CCCCC1)c1cc(-c2ccc(F)c(O)c2)on1 [Example 99, N-(1-Cyclohexyl-1H-pyrazol-5-yl)-5-(4-fluoro-3-hydroxyphenyl)isoxazole-3-carboxamide]",4.41,< 4.52,4.80
"O=C(c1noc(-c2cc(F)c(F)c(O)c2F)n1)N1CCOC2(CC2)C1 [Example 118, (4-Oxa-7-azaspiro[2.5]octan-7-yl)(5-(2,4,5-trifluoro-3-hydroxyphenyl)-1,2,4-oxadiazol-3-yl)methanone]",< 4.30,5.11,6.66
"CC1(C)CN(C(=O)c2noc(-c3cc(F)c(F)c(O)c3F)n2)CC(C)(C)O1 [Example 32, (2,2,6,6-Tetramethylmorpholino)(5-(2,4,5-trifluoro-3-hydroxyphenyl)-1,2,4-oxadiazol-3-yl)methanone]",4.80,5.08,6.52
"O=C(c1noc(-c2cc(F)c(F)c(O)c2F)n1)N1CCCC(OCc2ccccc2)C1 (stereo not drawn) [Example 94, (3-(Benzyloxy)piperidin-1-yl)(5-(2,4,5-trifluoro-3-hydroxyphenyl)-1,2,4-oxadiazol-3-yl)methanone]",< 4.30,5.92,5.85
"C[C@@H]1CN(C(=O)c2noc(-c3cc(F)c(F)c(O)c3F)n2)[C@H](C)CO1 [Example 50, ((2R,5R)-2,5-Dimethylmorpholino)(5-(2,4,5-trifluoro-3-hydroxyphenyl)-1,2,4-oxadiazol-3-yl)methanone]",4.40,4.76,6.66
"N#Cc1ccc2c(c1)CCN(C(=O)c1noc(-c3cc(F)c(F)c(O)c3F)n1)C2 [Example 31, 2-(5-(2,4,5-Trifluoro-3-hydroxyphenyl)-1,2,4-oxadiazole-3-carbonyl)-1,2,3,4-tetrahydroisoquinoline-6-carbonitrile]",4.52,5.30,5.97
"C[C@@H]1CN(C(=O)c2noc(-c3cc(F)c(F)c(O)c3F)n2)C[C@H](C)N1 [Example 119, ((3R,5S)-3,5-Dimethylpiperazin-1-yl)(5-(2,4,5-trifluoro-3-hydroxyphenyl)-1,2,4-oxadiazol-3-yl)methanone]",< 4.30,4.91,5.56
"N#Cc1cccc2c1CCN(C(=O)c1noc(-c3c(F)c(O)c(F)c(F)c3I)n1)C2 [Example 109, 2-(5-(2,4,5-Trifluoro-3-hydroxy-6-iodophenyl)-1,2,4-oxadiazole-3-carbonyl)-1,2,3,4-tetrahydroisoquinoline-5-carbonitrile]",< 4.30,4.83,5.77
